In experiment [1] the test system is collagen-induced blood-platelet aggregation. Kind of experiment: Collagen-induced blood-platelet aggregation. The format is in vivo, Wistar rats. The note with it: rats, 100 mg/kg orally, 3 hours after treatment, collagen (bovine tendon extract), with respect to control group; for inhibition at 100 mg/kg: Rattus norvegicus, po, read-out: Percent inhibition of blood-platelet aggregation, Collagen. The procedure: (§1) Blood is taken from the jugular vein of Wistar rats. From this citrated blood, and after centrifugation, is reconstituted a plasma containing 600,000 ± 20,000 blood-platelets per ml which is used in all aggregation determinations.
(§2) 0.4 ml plasma is placed in a siliconized tube provided with a magnet bar, also siliconized. The tube is introduced into an aggregometer coupled with an apparatus for recording optical density variations. When light transmission has reached a stable value, 0.5 ml of a solution containing 10 μM A.D.P. (Adenosine-Di-Phosphate) is introduced into the tube.
(§3) Blood-platelet aggregation causes an increase of light transmission followed by a decrease subsequent to the deaggregation phase.
(§4) The maximal optical density variation thus determined characterizes the intensity of the aggregation.
The A.D.P. solution is substituted with a collagen solution (bovine tendon extract).
(§5) Different groups of 20 rats are used, each group being orally administered a test derivative at a dosage of 100 mg/kg.

In experiment [2] the test system is A.D.P.-induced blood-platelet aggregation. The experiment can be described thus: A.D.P.-induced blood-platelet aggregation. The note with it: rats, 100 mg/kg orally, 3 hours after treatment, 10 μM A.D.P. solution, with respect to control group; for inhibition at 100 mg/kg: Rattus norvegicus, po, read-out: Percent inhibition of blood-platelet aggregation, A.D.P. The format is in vivo, Wistar rats. The procedure:
as §1, §2, §3, §4, §5

For experiment [3], the system named is ovalbumen-induced systemic edema. The experiment can be described thus: Ovalbumen-induced systemic edema method. The format is in vivo. The note with it: rats, 100 mg/kg orally 1 hour before and with ovalbumen; for inhibition in vivo at 100 mg/kg: Rattus norvegicus, po. The method, then: (b) Ovalbumen-induced systemic edema method
Simultaneous injection of 1 ml ovalbumen and 0.5 ml of a 1% aqueous Evans Blue solution is effected in rats. On the other hand, the animals of the treated group are administered orally 100 mg/kg of the test derivative one hour prior to ovalbumen administration and simultaneously with said administration. The intensity of the phenomenon thus induced is scored according to a scale from 1 to 5 depending on the progress of the inflammatory syndrome. The mean intensity of the edem and the percent decrease of the edema reaction with respect to the control group are thus determined as a function of time.

Experiment [4] concerns carrageenin-induced localized edema. Kind of experiment: Carrageenin-induced localized edema method. The note with it: rats, 100 mg/kg orally at -1, 0, 1 and 2.5 hours; for inhibition in vivo at 100 mg/kg: Rattus norvegicus, po. The experiment is classed as in vivo. The method, then: (a) Carrageenin-induced localized edema method
0.1 ml of a 1% carrageenin solution is injected in the metatarsal flexor muscles of the right hind limb of rats at time 0. The animals of the treated group are additionally orally administered 100 mg/kg of the test derivative, respectively one hour prior to injection of the phlogogenic agent, simultaneously with said injection, and then 1 hour and 2.5 hours thereafter. The determinations effected by means of a ROCH micrometer at times 0, 1 hour, 2 hours, 3 hours and 5 hours after carrageenin administration make it possible to determine, as a function of time, the percent anti-inflammatory activity with respect to the reference group.
Background: The carrageenan paw model is a standard test of acute inflammation.

[5] abbreviates: 2 hours after ovalbumen, read-out: Percent anti-inflammatory activity after 2 hours.
The mark [6] stands for this setting: 3 hours after ovalbumen, read-out: Percent anti-inflammatory activity after 3 hours.
The mark [7] stands for this setting: 1 hour after carrageenin, read-out: Percent anti-inflammatory activity after 1 hour.
[8] abbreviates: 2 hours after carrageenin, read-out: Percent anti-inflammatory activity after 2 hours.
[9] abbreviates: 3 hours after carrageenin, read-out: Percent anti-inflammatory activity after 3 hours.
The mark [10] stands for this setting: 5 hours after carrageenin, read-out: Percent anti-inflammatory activity after 5 hours.

Where two headings read alike, the source gives them in different places.

For `CN1Cc2ccsc2C(c2ccccc2)C1` (stereo not drawn) [derivative n°6, 5-Methyl-7-phenyl-4,5,6,7-tetrahydro-thieno[3,2-c]pyridine], the inhibition (as a rule, the change of the read-out against control, counted positive when it falls) at 100 mg/kg in experiment [1] was determined as 90.4%; in experiment [2] it was 61.7%. The inhibition in vivo at 100 mg/kg in experiment [3] (setting [5]) was determined as 47%; in experiment [3] (setting [6]), 55%; in experiment [4] (setting [7]) it was 45%; in experiment [4] (setting [8]), 52%; in experiment [4] (setting [9]), 56%; in experiment [4] (setting [10]), 58%.
`Fc1ccccc1CN1Cc2sccc2C(c2ccccc2)C1` (stereo not drawn) [derivative n°13, 6-o.Fluorobenzyl-4-phenyl-4,5,6,7-tetrahydrothieno[2,3-c]pyridine]: the inhibition at 100 mg/kg in experiment [1] was found to be 94.8%; in experiment [2], 64.3%. Moreover, the inhibition in vivo at 100 mg/kg was determined as 43% in experiment [3] (setting [5]); 50% in experiment [3] (setting [6]); 46% in experiment [4] (setting [7]); 51% in experiment [4] (setting [8]); 55% in experiment [4] (setting [9]); 57% in experiment [4] (setting [10]).
On to `Clc1ccccc1CN1Cc2sccc2C(c2ccccc2)C1` (stereo not drawn) [derivative n°11, 6-o.Chlorobenzyl-4-phenyl-4,5,6,7-tetrahydrothieno[2,3-c]pyridine], for which the results for the inhibition at 100 mg/kg in experiment [1] and in experiment [2] were 91.2% and 62.8%, respectively. Further, the inhibition in vivo at 100 mg/kg in experiment [3] (setting [5]) was 51%; in experiment [3] (setting [6]), 58%; in experiment [4] (setting [7]) it was 39%; in experiment [4] (setting [8]), 45%; in experiment [4] (setting [9]) it was 49%; in experiment [4] (setting [10]) it was 55%.
As to `Clc1ccccc1CN1Cc2ccsc2C(c2ccccc2)C1` (stereo not drawn) [derivative n°19, 5-o.Chlorobenzyl-7-phenyl-4,5,6,7-tetrahydro-thieno[3,2-c]pyridine], the results for the inhibition at 100 mg/kg in experiment [1] and in experiment [2] were 93.7% and 62.3%, respectively. Further, the inhibition in vivo at 100 mg/kg turned out to be 49% in experiment [3] (setting [5]); 57% in experiment [3] (setting [6]); 47% in experiment [4] (setting [7]); 53% in experiment [4] (setting [8]); 54% in experiment [4] (setting [9]); 56% in experiment [4] (setting [10]).
For `O=[N+]([O-])c1ccc(CN2Cc3sccc3C(c3ccccc3)C2)cc1` (stereo not drawn) [derivative n°17, 6-p.Nitrobenzyl-4-phenyl-4,5,6,7-tetrahydro-thieno[2,3-c]pyridine], the inhibition at 100 mg/kg was determined as 95% in experiment [1] and 63.9% in experiment [2]. The inhibition in vivo at 100 mg/kg in experiment [3] (setting [5]) was determined as 43%; in experiment [3] (setting [6]) it was 51%; in experiment [4] (setting [7]) it was 42%; in experiment [4] (setting [8]) it was 50%; in experiment [4] (setting [9]), 54%; in experiment [4] (setting [10]), 58%.
On to `Clc1ccc(C2CN(Cc3ccccc3Cl)Cc3sccc32)cc1` (stereo not drawn) [derivative n°9, 6-o.Chlorobenzyl-4-p.chlorophenyl-4,5,6,7-tetrahydro-thieno[2,3-c]pyridine], for which the results for the inhibition at 100 mg/kg in experiment [1] and in experiment [2] were 93.8% and 64.3%, respectively. Moreover, the inhibition in vivo at 100 mg/kg was determined as 48% in experiment [3] (setting [5]); 56% in experiment [3] (setting [6]); 44% in experiment [4] (setting [7]); 52% in experiment [4] (setting [8]); 55% in experiment [4] (setting [9]); 57% in experiment [4] (setting [10]).
`COc1ccc(CN2Cc3ccsc3C(c3ccccc3)C2)cc1` (stereo not drawn) [derivative n°27, 5-p.Methoxybenzyl-7-phenyl-4,5,6,7-tetrahydro-thieno[3,2-c]pyridine]: the results for the inhibition at 100 mg/kg in experiment [1] and in experiment [2] were 92.4% and 63%, respectively. Besides, the inhibition in vivo at 100 mg/kg turned out to be 51% in experiment [3] (setting [5]); 56% in experiment [3] (setting [6]); 38% in experiment [4] (setting [7]); 45% in experiment [4] (setting [8]); 49% in experiment [4] (setting [9]); 52% in experiment [4] (setting [10]).
As for `CC1C(c2ccccc2)c2sccc2CN1Cc1ccccc1Cl` (stereo not drawn) [derivative n°23, 5-o.Chlorobenzyl-6-methyl-7-phenyl-4,5,6,7-tetrahydro-thieno[3,2-c]pyridine], the inhibition at 100 mg/kg in experiment [1] was found to be 94.5%; in experiment [2], 64.8%. For the same molecule, the inhibition in vivo at 100 mg/kg in experiment [3] (setting [5]) was found to be 47%; in experiment [3] (setting [6]), 54%; in experiment [4] (setting [7]) it was 39%; in experiment [4] (setting [8]), 44%; in experiment [4] (setting [9]), 48%; in experiment [4] (setting [10]), 52%.
In the case of `Cc1ccc(N2Cc3sccc3C(c3ccccc3)C2)cc1` (stereo not drawn) [derivative n°18, 4-Phenyl-6-p.tolyl-4,5,6,7-tetrahydro-thieno[2,3-c]pyridine], in experiment [1], the “Percent inhibition of blood-platelet aggregation, Collagen” value is reported as 93.5%. Further, in experiment [2], the “Percent inhibition of blood-platelet aggregation, A.D.P.” value was determined as 62.5%. The “Percent anti-inflammatory activity after 2 hours” value in experiment [3] (2 hours after ovalbumen) was found to be 47%; in experiment [4] (2 hours after carrageenin), 48%. Besides, the entries for the “Percent anti-inflammatory activity after 3 hours” value in experiment [3] (3 hours after ovalbumen) and in experiment [4] (3 hours after carrageenin) were 56% and 53%, respectively. Moreover, in experiment [4] (1 hour after carrageenin), the “Percent anti-inflammatory activity after 1 hour” value amounted to 40%. Further, the “Percent anti-inflammatory activity after 5 hours” value in experiment [4] (5 hours after carrageenin) turned out to be 56%.
`c1ccc(CN2Cc3sccc3C(c3ccccc3)C2)cc1` (stereo not drawn) [derivative n°12, 6-Benzyl-4-phenyl-4,5,6,7-tetrahydro-thieno[2,3-c]pyridine]: the inhibition at 100 mg/kg in experiment [1] amounted to 93.3%; in experiment [2] it was 63.7%. Moreover, the inhibition in vivo at 100 mg/kg in experiment [3] (setting [5]) was found to be 47%; in experiment [3] (setting [6]), 55%; in experiment [4] (setting [7]) it was 47%; in experiment [4] (setting [8]), 53%; in experiment [4] (setting [9]), 57%; in experiment [4] (setting [10]) it was 60%.
As for `CCCCN1Cc2ccsc2C(c2ccccc2)C1` (stereo not drawn) [derivative n°21, 5-Butyl-7-phenyl-4,5,6,7-tetrahydro-thieno[3,2-c]pyridine], the inhibition at 100 mg/kg in experiment [1] amounted to 94%; in experiment [2] it was 62.2%. Besides, the inhibition in vivo at 100 mg/kg stood at 51% in experiment [3] (setting [5]); 57% in experiment [3] (setting [6]); 38% in experiment [4] (setting [7]); 44% in experiment [4] (setting [8]); 46% in experiment [4] (setting [9]); 49% in experiment [4] (setting [10]).
Consider `c1ccc(CN2Cc3ccsc3C(c3ccccc3)C2)cc1` (stereo not drawn) [derivative n°24, 5-Benzyl-7-phenyl-4,5,6,7-tetrahydro-thieno[3,2-c]pyridine], for which the inhibition at 100 mg/kg in experiment [1] was determined as 93%; in experiment [2], 62.6%. Further, the inhibition in vivo at 100 mg/kg in experiment [3] (setting [5]) is 42%; in experiment [3] (setting [6]), 47%; in experiment [4] (setting [7]), 41%; in experiment [4] (setting [8]) it was 47%; in experiment [4] (setting [9]), 50%; in experiment [4] (setting [10]) it was 53%.
